One assay concerns E0771 breast tumors. Nature of the assay: Tumor matrix level histology (collagen I). As to conditions: mouse, in vivo. Also noted: species or system SCID mouse. As to the method:
Collagen levels were used as a metric of matrix production as described in Diop-Frimpong et al., Proc Nall Acad Sci USA. […] Next, solid stress in these tumors was measured using recently established technique described in Stylianopoulos T, et al., Growth-induced mechanical stress in murine and human tumors: causes, consequences and remedies. under review.
Vessel perfusion, matrix level, and hypoxia histology: For breast tumors, mice bearing orthotopic E0771 were split into treatment groups, time-matched for time after implantation and size-matched for tumor volume at this time (−100 mm^3). For pancreatic tumors, mice bearing orthotopic AK4.4 were split into treatment groups, size-matched for tumor volume (˜22 mm^3), 6 days after implantation. […] On the day of the last treatment, mice were slowly (−2 min) injected with 100 μL of 1 mg/mL biotinylated lectin (Vector Labs), administered retro-orbitally 5 min prior to tumor removal. For hypoxia studies, the mice were also injected with 60 mg/kg of 10 mg/mL pimonidazole 1 hr prior to tumor removal. […] For matrix staining, collagen I was detected using the LF-67 antibody provided by Dr. Larry Fisher (National Institute of Dental Research, Bethesda, Md.).
Histological image analysis: Eight random images (four interior, four periphery) at 20× magnification were taken from each slide using a confocal microscope (Olympus). […] For perfusion, the number of vessels counted by this program with colocalization of lectin and CD31 staining was divided by the number of vessels counted with CD31 staining. For vessel metrics, including diameter and density, the program determined the average size of all counted vessels and their length, as well as the count per area Images of collagen I stained sections were analyzed based on the area fraction of positive staining and on the average staining intensity (concentration) in each image. […] Images of hypoxia staining with pimonidazole were similarly analyzed for the area fraction of positive staining, counting the fraction of pixels above a threshold based on background intensity.

The subject of a further assay is 4T1 breast tumors. Nature of the assay: Breast tumor growth and survival studies. It counts as in vivo, mice. An excerpt: In FIG. 35B, the quantification of tumor growth rates, based on the time to reach double the initial volume, is shown.
In FIG. 35C, the animal survival following the initiation of treatment is shown. […] Statistical tests were corrected for multiple comparisons using the Holm-Bonferroni method.
Breast tumor growth and survival studies: Mice bearing orthotopic E0771 or 4T1 breast tumors were split into treatment groups, time-matched for time after implantation and size-matched for tumor volume at this time (110-111 mm^3 in E0771, in 4T1). […] The primary tumors were then measured every 2 days, beginning on day 0, using calipers. Tumor growth was quantified using the time for each to reach double its initial volume Animal survival was quantified based on time of death after initiation of treatment or time to reach excessive tumor burden (>1000 mm^3).

The test system of another assay is tumors. Nature of the assay: Solid stress after a panel of ARBs. Type of assay: in vivo. The settings on record: 40 mg/kg losartan, 3.2 mg/kg candesartan, 32 mg/kg valsartan. As to the method: Solid stress levels in tumors after angiotensin inhibition using the ARBs losartan, candesartan, and valsartan are shown. Doses were chosen based on their relative doses in patients for hypertension indications (40 mg/kg losartan, 3.2 mg/kg candesartan, 32 mg/kg valsartan). […] Animal numbers n=6-7. Statistical tests were corrected for multiple comparisons using the Holm-Bonferroni method.
The mechanism responsible for the increase in tumor vessel perfusion by losartan was investigated. Desmoplasia, high stromal cell and matrix density, is a major contributor to the solid stress accumulation that compresses vessels (Stylianopoulos T, et al., Growth-induced mechanical stress in murine and human tumors: causes, consequences and remedies. under review. 2012). Since angiotensin inhibitors reduce matrix production in tumors (Diop-Frimpong B, et al., Proc Natl Acad Sci USA. 2011; 108(7): 2909-14), it was hypothesized that they decompress vessels and increase perfusion by decreasing solid stress. Collagen levels were used as a metric of matrix production as described in Diop-Frimpong et al., Proc Nall Acad Sci USA. […] Moreover, losartan decreased collagen I concentration, measured based on staining intensity, in E0771 and AK4.4 tumors (FIGS. 24B-24C). Of note, dense collagen seemed to colocalize with low-perfusion areas (FIG. 24C). Next, solid stress in these tumors was measured using recently established technique described in Stylianopoulos T, et al., Growth-induced mechanical stress in murine and human tumors: causes, consequences and remedies. under review. 2012. […]
Solid stress: Solid stress was measured using the tumor opening technique as described previously (Stylianopoulos T, et al., Growth-induced mechanical stress in murine and human tumors: causes, consequences and remedies. under review. 2012). […] Subsequently, each tumor was excised, washed with Hanks' Balanced Salt Solution (HBSS) and its three dimensions were measured. […] Afterwards, the opening resulting from the cut was measured at the middle of the cut at the surface of the tumor. […]

Take `CCCCc1nc(Cl)c(CO)n1Cc1ccc(-c2ccccc2-c2nn[nH]n2)cc1` [losartan]: in the assay on E0771 breast tumors, the “concentration of collagen I (staining intensity)” value is given as “reduces” and the “matrix production, collagen I area fraction” value is reported as “decreases”. In addition, the tumor growth rate entry with 4T1 breast tumors (agent given alone (losartan 40 mg/kg daily or doxorubicin 2 mg/kg every three days)) is given as “no significant effect”. Besides, in the assay on 4T1 breast tumors (combination of losartan and doxorubicin), the survival result is given as “improved survival”. Moreover, the tumor growth result in the assay on 4T1 breast tumors (losartan in combination with doxorubicin) is “significantly delayed”. Also, the survival result with 4T1 breast tumors (monotherapy) is reported as “did not shorten survival”. Moreover, the solid stress result with tumors is listed as “reduce solid stress to a similar degree”.

The values above are taken from US20130287688A1, “NOVEL COMPOSITIONS AND USES OF ANTI-HYPERTENSION AGENTS FOR CANCER THERAPY” (XTUIT PHARMACEUTICALS, INC., priority 2010, published 2013).
